This note sets out measurements from patent publication US20220257710A1, “ANTI-INFECTION EFFECTS OF HNRNPA2B1 AND USE THEREOF” (INSTITUTE OF BASIC MEDICAL SCIENCES, CHINESE ACADEMY OF …, priority 2019, published 2022).

The assay concerns HSV-1 DNA. In words: Immunoprecipitation of nuclear protein with anti-hnRNPA2B1 antibody and PCR detection of HSV-1 DNA. Particulars: mouse primary peritoneal macrophages, 2 hours after HSV-1 infection, PCR. The format is binding, HSV-1 (strain F). On the procedure:
Obtaining the primary peritoneal macrophages of mice: C57BL/6 mice (6-8 weeks old, female, Shanghai Bikai Experimental Animal Co., Ltd.) were intraperitoneally injected with 2 ml of 3% mercaptoacetate (Sigma Aldrich) solution once. Three days later, the mice were sacrificed by cervical dislocation, and the abdominal cavity was washed with serum-free medium, sucked out and centrifuged to obtain cells.
The primary peritoneal macrophage cells were cultured in DMEM medium. After HSV-1 (strain F, ATCC) infection for 2 hours, nuclear protein was isolated and immunoprecipitated by anti-hnRNPA2B1 antibody (Santa Cruz) or control antibody (IgG, Santa Cruz). HSV-1 DNA was detected by PCR.

For the substance “hnRNPA2B1: heterogeneous nuclear ribonucleoprotein A2B1; endogenous nuclear protein of mouse macrophages precipitated by anti-hnRNPA2B1 antibody”, the “binding of hnRNPA2B1 to HSV-1 DNA” value was “bound”.
